Assay results published in ChEMBL document CHEMBL1201862, “PubChem BioAssay data set” (2004).
The source made the active and inactive calls.

Legend:
cells [1] = assay: cells
cells [2] = conditions: HEK293
[3] = OVCAR8 cell viability loss – plate reader, dry powder samples, PAX8 project, dose response (AID 743197); format: functional, cell-based; conditions: OVCAR-8
Paired box protein Pax-8 = Paired box protein Pax-8 (Homo sapiens, UniProt Q06710); assay: PAX8 transcriptional activity inhibition in RMG-I – RMG-I cells, luciferase, cherry-pick, dose response (AID 687027); format: functional, cell-based;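 further: luciferase reporter driven by Pax8 target thyroperoxidase promoter measured by SteadyGlo luminescence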
[4] = A2780 cell killing – plate reader, dry powder samples, cytotoxicity control, dose response (AID 743046); format: functional, cell-based
[5] = Dd2 parasite growth inhibition in erythrocytes – SYBR Green, dry powder samples, set 4, dose response (AID 1159572); format: functional, cell-based
[6] = biological target: NAD-dependent protein deacylase sirtuin-5, mitochondrial (Homo sapiens, UniProt Q9NXA8); assay: sirtuin-5 deacylation blockers, concentration series – biochemical, fluorescence imaging, cherry-pick, set 5, dose response (AID 720591);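 further: desuccinylation of succinyl peptide AMC substrate read as fluorescence after trypsin release; potency of inhibitors that lower fluorescence and may act on trypsin instead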
[7] = P. falciparum Dd2 growth inhibitors, dose response, SYBR Green, cherry-picked samples (AID 1159567); format: functional, cell-based
[8] = viability loss in A549 lung cells – cell-based, 24 h, CellTiter-Glo luminescence, cherry-picks, cytotoxicity control, dose response (AID 1053115); format: functional; conditions: A549, 24 h
[9] = biological target: G-protein coupled receptor 183 (Homo sapiens, UniProt P32249); assay: SAR confirmation of small molecule antagonists of the EBI2 receptor via a luminescent beta-arrestin assa.; format: functional
[10] = biological target: E3 ubiquitin-protein ligase Mdm2 (Homo sapiens, UniProt Q00987); assay: MDM2-luc reporter signal enhancers, multi-concentration potency testing, MDM2 ubiquitin-protein ligase inhibitor program, whole-cell format, luminescence detection, 384-well microplate (AID 1394); format: functional;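 further: MDM2 E3 inhibitors raise luminescence so EC50 is for signal enhancement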
Vero = assay: cells; format: functional; conditions: Chlorocebus sabaeus
[11] = rise of 4N DNA cells, HeLa – IC50, dose response (AID 1117351); format: functional, cell-based
[12] = rise of 2N DNA cells, HeLa – IC50, dose response (AID 1117349); format: functional, cell-based
[13] = biological target: T1, Low molecular weight phosphotyrosine protein phosphatase (Homo sapiens, UniProt P24666); assay: inhibition of LMPTP-A enzymatic activity – biochemical, OMFP substrate, fluorescence intensity, set 2, dose response (AID 743307); format: functional
T1 sequence (P24666 whole entry): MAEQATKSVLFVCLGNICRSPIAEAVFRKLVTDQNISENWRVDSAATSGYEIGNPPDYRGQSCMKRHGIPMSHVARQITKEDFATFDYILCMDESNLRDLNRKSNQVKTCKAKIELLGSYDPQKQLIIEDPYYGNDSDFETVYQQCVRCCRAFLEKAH

[14] = biological target: T1, Low molecular weight phosphotyrosine protein phosphatase; assay: inhibition of human LMPTP enzyme activity – biochemical, absorbance, pNPP substrate, LMPTP-A isoform, set 2, orthogonal assay, dose response (AID 743308); format: functional
[15] = viability loss in HepG2 hepatoma cells – cell-based, ATP luminescence, cherry-pick, activator set 2, cytotoxicity control, dose response (AID 1053143); format: functional
cells [16] = conditions: HEK293; remark: listed apart in the source
[17] = toxicity to A549 lung cells – cell-based, plate reader, dry powder, set 6, cytotoxicity control, dose response (AID 743312); format: functional
[18] = ATP-based viability loss in HepG2 cells – cell-based, CellTiter-Glo luminescence, dry powder, set 3, cytotoxicity control, dose response (AID 720594); format: functional
[19] = ATP-based viability loss in HEK293T cells – cell-based, CellTiter-Glo luminescence, dry powder, set 2, cytotoxicity control, dose response (AID 720595); format: functional; conditions: HEK293
[20] = ATP-based viability loss in HeLa cells – cell-based, CellTiter-Glo luminescence, dry powder, set 2, cytotoxicity control, dose response (AID 720593); format: functional
[21] = MITF: Counter assay: A375 proliferation Measured in Cell-Based System Using Plate Reader - 2084-03_Inhibitor_Dose_DryPowder_Activity_Set8.; format: functional; conditions: A-375
[22] = inhibitors of TRPM1-promoter reporter in SK-MEL-5 – cell-based, luciferase, dry powder, set 8, MITF inhibitor project, dose response (AID 624430); format: functional
[23] = MITF Orthogonal Assay: SK-MEL-5 CTG Assay Measured in Cell-Based System Using Plate Reader - 2084-02_Inhibitor_Dose_DryPowder_Activity_Set7.; format: functional

Paired box protein Pax-8, sequence (Q06710 whole entry): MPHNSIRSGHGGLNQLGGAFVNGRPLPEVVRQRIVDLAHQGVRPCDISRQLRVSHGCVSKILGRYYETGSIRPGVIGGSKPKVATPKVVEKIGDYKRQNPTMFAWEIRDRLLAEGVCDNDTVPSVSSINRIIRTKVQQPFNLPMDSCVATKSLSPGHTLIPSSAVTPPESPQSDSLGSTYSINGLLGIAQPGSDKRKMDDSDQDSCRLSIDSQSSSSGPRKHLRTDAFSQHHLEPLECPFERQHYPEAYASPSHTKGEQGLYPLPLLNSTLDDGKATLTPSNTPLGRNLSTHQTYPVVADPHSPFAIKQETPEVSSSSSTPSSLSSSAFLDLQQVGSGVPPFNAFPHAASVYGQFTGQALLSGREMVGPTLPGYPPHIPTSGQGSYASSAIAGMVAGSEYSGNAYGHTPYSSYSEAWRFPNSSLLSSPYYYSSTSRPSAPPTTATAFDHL
E3 ubiquitin-protein ligase Mdm2, sequence (Q00987 whole entry): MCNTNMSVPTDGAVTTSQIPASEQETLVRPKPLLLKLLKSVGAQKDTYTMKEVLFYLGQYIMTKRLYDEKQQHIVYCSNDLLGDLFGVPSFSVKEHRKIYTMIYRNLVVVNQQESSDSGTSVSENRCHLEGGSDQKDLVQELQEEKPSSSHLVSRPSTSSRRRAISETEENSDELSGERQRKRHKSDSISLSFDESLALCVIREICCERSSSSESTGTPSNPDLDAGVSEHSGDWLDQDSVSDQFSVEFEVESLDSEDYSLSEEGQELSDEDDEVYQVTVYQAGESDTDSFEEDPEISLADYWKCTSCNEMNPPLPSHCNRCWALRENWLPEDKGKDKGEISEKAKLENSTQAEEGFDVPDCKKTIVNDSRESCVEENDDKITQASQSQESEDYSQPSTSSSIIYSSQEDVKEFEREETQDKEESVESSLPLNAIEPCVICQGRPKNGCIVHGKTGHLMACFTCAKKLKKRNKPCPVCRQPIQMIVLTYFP
NAD-dependent protein deacylase sirtuin-5, mitochondrial, sequence (Q9NXA8 whole entry): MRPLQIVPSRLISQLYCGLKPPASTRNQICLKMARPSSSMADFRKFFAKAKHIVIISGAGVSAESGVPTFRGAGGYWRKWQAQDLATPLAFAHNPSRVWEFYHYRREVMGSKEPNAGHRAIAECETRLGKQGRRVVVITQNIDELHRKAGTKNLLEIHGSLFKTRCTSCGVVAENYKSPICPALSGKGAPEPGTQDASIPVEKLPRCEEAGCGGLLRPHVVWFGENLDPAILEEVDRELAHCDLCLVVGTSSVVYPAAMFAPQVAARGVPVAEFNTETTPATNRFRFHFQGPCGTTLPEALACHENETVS
G-protein coupled receptor 183, sequence (P32249 whole entry): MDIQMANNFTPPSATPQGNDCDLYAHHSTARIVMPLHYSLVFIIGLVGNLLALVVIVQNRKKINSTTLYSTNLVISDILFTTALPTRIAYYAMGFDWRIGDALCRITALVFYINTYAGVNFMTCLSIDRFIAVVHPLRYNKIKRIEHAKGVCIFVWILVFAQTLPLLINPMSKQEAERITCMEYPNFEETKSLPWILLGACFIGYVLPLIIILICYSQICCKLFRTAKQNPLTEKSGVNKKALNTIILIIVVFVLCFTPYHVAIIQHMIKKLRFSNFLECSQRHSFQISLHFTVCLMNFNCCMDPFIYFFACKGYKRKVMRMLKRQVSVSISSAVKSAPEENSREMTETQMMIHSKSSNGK

Compound: Cn1c2ccccc2c(=O)c2ccc(F)cc21
- AC50 (cells [1]): 7.33 µM (active)
- AC50 (cells [2]): > 52 µM (inactive)

Compound: COc1ccc(-c2ccc3c(c2)[C@@H]2[C@@H](CCN2C(=O)NC2CCCCC2)[C@@H](CO)N3C)cc1
- AC50 [3]: 37.8 µM (active)
- AC50 (Paired box protein Pax-8): 14.5 µM (active)
- AC50 [4]: 0.292 µM (active)

Compound: COc1ccc2c3c([nH]c2c1)[C@H](CO)NCC31CCN(C(=O)Nc2ccccc2F)CC1
- AC50 [5]: 1.52 µM (active)

Compound: CCOc1ccc(CCN2C(=O)C(=O)N([C@@H](Cc3ccccc3)CN3CCC[C@@H]3CN3C(=O)C(=O)NC[C@@H]3Cc3ccc(O)cc3)C[C@@H]2Cc2ccccc2)cc1
- AC50 [6]: > 30 µM (inactive)

Compound: OC[C@H]1Nc2ccc(-c3ccccc3)cc2[C@H]2[C@@H]1CCN2Cc1ccc(F)cc1
- AC50 [7]: 1.25 µM (active)
- AC50 [8]: 46.4 µM (active)

Compound: O=C(/C=C/c1ccc(Br)cc1)N1CCN(C(=O)c2ccc(C(F)(F)F)cc2)CC1
- IC50 [9]: 0.00188 µM (active)

Compound: CCOC(=O)N1C/C(=C\c2ccccc2)C(=O)/C(=C/c2ccccc2)C1
- EC50 [10]: 0.61 µM (active)
- CC50 (Vero): 23 µM (active)

Compound: CCCCCCCCCCCCCCCC[N+](C)(C)Cc1ccccc1 [CETALKONIUM CHLORIDE]
- IC50 [11]: > 10 µM (inactive)
- IC50 [12]: > 10 µM (inactive)

Compound: c1ccc(-c2nc(NC3CCCCC3)c3ccccc3n2)cc1
- IC50 [13]: 19.1 µM (active)
- IC50 [14]: > 80 µM (inactive)

Compound: Cc1nc(-c2ccc(C(=O)Nc3ccc(F)cc3)cc2)cs1
- AC50 [15]: 26 µM (active)

Compound: Cc1ccc(OCCn2cnc3ccccc32)c(C(C)C)c1
- AC50 (cells [16]): 39.8 µM (active)
- AC50 [17]: 24.5 µM (active)

Compound: CSc1ccc(-c2nnc(NC(=O)c3ccc(S(=O)(=O)N4CCC(C)CC4)cc3)o2)cc1
- AC50 [18]: > 52 µM (inactive)
- AC50 [19]: 9.24 µM (active)
- AC50 [20]: > 52 µM (inactive)

Compound: CN1CCN(C2=C(Nc3ccc(Br)cc3)C(=O)c3ccccc3C2=O)CC1
- AC50 [21]: 27 µM (active)
- AC50 [22]: 5.56 µM (active)
- AC50 [23]: 7.8 µM (active)
